{"source": "patent US20220184071A1", "about": "“GEPOTIDACIN FOR USE IN THE TREATMENT OF BACTERIAL URINARY TRACT INFECTIONS” (GlaxoSmithKline Intellectual Property Development Limited, priority 2019, published 2022)", "key": {"[1]": {"tested_on": "K. pneumoniae", "assay": "Phase IIa baseline uropathogen susceptibility testing (CLSI broth microdilution)", "type": "cell-based, Klebsiella pneumoniae", "conditions": "Klebsiella pneumoniae; Participant 7; read-out: GEP MIC", "protocol": "This phase IIa single center study evaluated the safety, tolerability, pharmacokinetics, and efficacy of oral gepotidacin 1500 mg BID for 5 days in female subjects with acute cystitis. Clean catch mid-stream urine specimens were obtained for quantitative culture by standard methods. Urine samples were taken from all participants pre-treatment (baseline) and at all post-baseline visits. All urine samples were sent to a central laboratory (PPD Global Clinical Laboratories, Highland Heights, Ky., USA) for Gram stain, quantitative culture, pathogen identification and susceptibility testing. See FIG. 1 for participant disposition and study outline.\nSusceptibility testing by CLSI broth microdilution and gradient diffusion (fosfomycin only) was conducted (CLSI, 2015, Methods for dilution antimicrobial susceptibility tests for bacteria that grow aerobically; approved standard-tenth edition; and CLSI, 2018. Performance Standards for Antimicrobial Susceptibility Testing; Twenty-seventh Informational Supplement M100-S28). Inclusion in the microbiological intent-to-treat population (micro-ITT), required growth of a qualifying baseline uropathogen (≥10^5 CFU/mL). See FIG. 2 for the baseline algorithm."}, "[2]": {"tested_on": "Staphylococcus epidermidis", "assay": "MIC by CLSI broth microdilution in CAMHB and urine, Example 5 Method 2", "type": "cell-based", "conditions": "for Mean MIC: n = 4; for MIC: Staphylococcus epidermidis", "protocol": "The compounds were tested in serial two-fold dilutions and the minimum inhibitory concentration (MIC) was determined as the lowest concentration of the compound that inhibited visible growth.\nIn particular, gepotidacin was tested against 4 strains of Staphylococcus epidermidis from the collection of isolates at Laboratory Specialists, Inc., Westlake, Ohio.\nLevofloxacin was included as the comparator in the study to determine the effect of urine on the in vitro activity of gepotidacin against Staphylococcus epidermidis. MICs were determined by broth microdilution according CLSI methods.\nThe data shown in the table below are results from an in vitro study conducted with the same S. epidermidis isolates described above, to determine the effect of urine on the in vitro activity of gepotidacin and levofloxacin against S. epidermidis. Study strains were tested for MICs according to reference CLSI broth microdilution method using cation-adjusted Mueller Hinton Broth (CAMHB) and with the addition of 25%, 50% and 100% urine (not pH adjusted, pH 6.42) and 100% urine (pH adjusted, 7.31 and 8.07)."}}, "note": "Where two headings read alike, the source gives them in different places.", "data": [{"smiles": "O=c1ccc2ncc(=O)n3c2n1C[C@H]3CN1CCC(NCc2cc3c(cn2)OCCC3)CC1", "note": "[gepotidacin, (2R)-2-({4-[(3,4-dihydro-2H-pyrano[2,3-c]pyridin-6-ylmethyl)amino]-1-piperidinyl}methyl)-1,2-dihydro-3H,8H-2a,5,8a-triazaacenaphthylene-3,8-dione]", "values": [{"measurement": "MIC", "setting": "[1]", "value": 4, "unit": "µg/mL"}, {"measurement": "MIC range", "setting": "[2]; 2 isolates of methicillin-resistant S. epidermidis", "value": "0.25 to 0.5", "unit": "µg/mL"}, {"measurement": "Mean Dilution Difference", "setting": "[2]; 25% Urine (pH 7.09) vs CAMHB", "value": "−0.75"}, {"measurement": "Mean difference", "setting": "[2]; 25% Urine (pH 7.09) vs CAMHB", "value": "−0.17"}, {"measurement": "N(%) ± 1 dilution", "setting": "[2]; 25% Urine (pH 7.09) vs CAMHB", "value": "4 (100%)"}, {"measurement": "N(%) ± 2 dilution", "setting": "[2]; 25% Urine (pH 7.09) vs CAMHB", "value": "4 (100%)"}, {"measurement": "Mean MIC", "setting": "[2]; 25% Urine (pH 7.09)", "value": 0.25, "unit": "µg/mL"}, {"measurement": "Mean Dilution Difference", "setting": "[2]; 50% Urine (6.99) vs CAMHB", "value": "−1.01"}, {"measurement": "Mean difference", "setting": "[2]; 50% Urine (6.99) vs CAMHB", "value": "−0.21"}, {"measurement": "N(%) ± 1 dilution", "setting": "[2]; 50% Urine (6.99) vs CAMHB", "value": "4 (100%)"}, {"measurement": "N(%) ± 2 dilution", "setting": "[2]; 50% Urine (6.99) vs CAMHB", "value": "4 (100%)"}, {"measurement": "Mean MIC", "setting": "[2]; 50% Urine (6.99)", "value": 0.21, "unit": "µg/mL"}, {"measurement": "Mean Dilution Difference", "setting": "[2]; 100% Urine (pH 6.42) vs CAMHB", "value": "−0.26"}, {"measurement": "Mean difference", "setting": "[2]; 100% Urine (pH 6.42) vs CAMHB", "value": "−0.07"}, {"measurement": "N(%) ± 1 dilution", "setting": "[2]; 100% Urine (pH 6.42) vs CAMHB", "value": "4 (100%)"}, {"measurement": "N(%) ± 2 dilution", "setting": "[2]; 100% Urine (pH 6.42) vs CAMHB", "value": "4 (100%)"}, {"measurement": "Mean MIC", "setting": "[2]; 100% Urine (pH 6.42)", "value": 0.35, "unit": "µg/mL"}, {"measurement": "Mean Dilution Difference", "setting": "[2]; 100% Urine (pH 7.31) vs CAMHB", "value": 0.25}, {"measurement": "Mean difference", "setting": "[2]; 100% Urine (pH 7.31) vs CAMHB", "value": 0.08}, {"measurement": "N(%) ± 1 dilution", "setting": "[2]; 100% Urine (pH 7.31) vs CAMHB", "value": "4 (100%)"}, {"measurement": "N(%) ± 2 dilution", "setting": "[2]; 100% Urine (pH 7.31) vs CAMHB", "value": "4 (100%)"}, {"measurement": "Mean MIC", "setting": "[2]; 100% Urine (pH 7.31)", "value": 0.5, "unit": "µg/mL"}, {"measurement": "Mean Dilution Difference", "setting": "[2]; 100% Urine (pH 8.07) vs CAMHB", "value": 0.00}, {"measurement": "Mean difference", "setting": "[2]; 100% Urine (pH 8.07) vs CAMHB", "value": 0.00}, {"measurement": "N(%) ± 1 dilution", "setting": "[2]; 100% Urine (pH 8.07) vs CAMHB", "value": "4 (100%)"}, {"measurement": "N(%) ± 2 dilution", "setting": "[2]; 100% Urine (pH 8.07) vs CAMHB", "value": "4 (100%)"}, {"measurement": "Mean MIC", "setting": "[2]; 100% Urine (pH 8.07)", "value": 0.42, "unit": "µg/mL"}, {"measurement": "mean dilution differences (range)", "setting": "[2]; 100% urine (conclusion)", "value": "0 to −0.26"}, {"measurement": "Mean MIC", "setting": "[2]; CAMHB (ref. method, pH 7.2)", "value": 0.42, "unit": "µg/mL"}, {"measurement": "MIC", "setting": "[2]; 2 isolates of methicillin-susceptible S. epidermidis, read-out: MIC", "value": 0.5, "unit": "µg/mL"}, {"measurement": "MIC", "setting": "[2]; at least one strain of methicillin-susceptible or methicillin-resistant S. epidermidis, read-out: MIC", "value": "≤ 0.5", "unit": "µg/mL"}, {"measurement": "MIC", "setting": "[2]; read-out: MICs, methicillin-susceptible and methicillin-resistant isolates tested (conclusion), heading: MICs", "value": "< 0.5", "unit": "µg/mL"}, {"measurement": "mean dilution differences (range)", "setting": "[2]; addition of urine vs CAMHB", "value": "0 to −1.01"}, {"measurement": "MIC fold greater than the levofloxacin MIC", "setting": "[2]; each of the methicillin-resistant S. epidermidis", "value": 4, "unit": "fold"}, {"measurement": "MIC fold greater than the levofloxacin MIC", "setting": "[2]; methicillin-susceptible S. epidermidis", "value": 2, "unit": "fold"}]}]}
